From patent publication US11396501B2, “Heteroaryl compounds as CXCR4 inhibitors, composition and method using the same” (CGENETECH (SUZHOU, CHINA) CO., LTD., priority 2017, dated 2022)

What was measured:
[1] = molecular target: T1, CXCR4 (Homo sapiens, UniProt P61073); assay: FLIPR Tetra calcium mobilization assay; format: cell-based; details: Human CD4+ T-Cells; CXCL12 added; FLIPR Calcium 4 assay kit
Description: FLIPR Tetra Calcium Mobilization Assay The FLIPR Tetra calcium mobilization assay was performed by HD Bioscience. Briefly, The Molecular Devices, Fluorescent Imaging Plate Reader (FLIPR) Tetra was used in this assay. Excitation was achieved through unique placement of LED's within the instrument and emission captured by a CCD camera (EMCCD camera for FI and ICCD camera for luminescence). The homogeneous FLIPR Calcium 4 assay kit from Molecular Devices was used as the fluorescence reagent. Compounds were solubilized in 100% dimethyl sulfoxide (DMSO) to a concentration of 30 mM. A 10-point, 4-fold, intermediate dilution series was created in 100% DMSO with a top concentration of 4 mM and a bottom concentration of 0.01 μM. A near assay ready, direct dilution plate ([…]) was prepared from this compound dilution plate by transferring 1 μL of each dilution of compound in 100% DMSO to a Greiner #781201 plate. In addition, each […] plate also contained positive and negative control wells to define the upper and lower limits for the assay signal. The final assay concentration range of compound was 10 μM to 0.035 nM in 0.5% DMSO. Human CD^4+ T-Cells were isolated from human whole blood and subsequently activated and expanded using a CD3/CD28 expansion kit (Life Technologies). The cells were frozen in ThermoFisher-formulated Recovery Cell Culture Freezing Medium containing 10% Dimethyl sulfoxide (DMSO) and 10% Fetal Bovine Serum (FBS) (ThermoFisher Catalog No. 10100147). When used, cells were resuspended using room temperature 1× HBSS/20 mM HEPES/0.005% P-104 assay buffer, adjusted the volume of the suspension to achieve a cell concentration of 2.5×10^6 cells/mL. 2× Calcium 4 dye (20 μL/well) were added and the mixture were centrifuged briefly ( 10 s) and stopped when it reached 1000 rpm. The plates were allowed to equilibrate before compounds and CXCL12 were added to the plates. The raw data were analyzed using Abase. The percent (%) effect at each concentration of compound was calculated by Abase and was based on and relative to the amount of calcium produced in the positive and negative control wells contained within each assay plate. The concentrations and % effect values for tested compounds were plotted by Abase and the concentration of compound required for 50% effect (IC50) was determined with a four-parameter logistic dose response equation. FIGS. 3 and 4 summarize the results of Compounds A78 and A83 in the calcium mobilization assay.

[2] = molecular target: T1, CXCR4; assay: HPB-ALL CXCR4 competitive binding assay (12G5 binding assay); design: HPB-ALL cells were maintained in RPMI-1640 (Gibico) supplemented with 10% FBS (Hyclone); endogenous in cells; host or cells: HPB-ALL cells; details: HPB-ALL cells; competition with APC-conjugated anti-human CXCR4 clone 12G5 at its EC80; 4° C. for 3 h; FACS
Description: HPB-ALL CXCR4 Competitive Binding Assay
HPB-ALL cells were maintained in RPMI-1640 (Gibico) supplemented with 10% FBS (Hyclone). APC-conjugated anti-human CXCR4 was from Sungene. EC80 was first determined for 12G5 binding to CXCR4. Then the compounds for testing were added into 96-well plates serially diluted at a ratio of 1:3. Cells were washed once with ice-cold assay buffer (DPBS+2% HI-FBS) and then re-suspended in the same buffer at a final concentration of 1×10^6/mL. Cell suspension was then added into the wells and with the addition of APC-conjugated anti-human CXCR4 clone 12G5 at its EC80 determined. The mix of cell, compounds and APC-conjugated anti-human CXCR4 were incubated at 4° C. for 3 h before addition of 100 μL of 4% PFA. Cells were then washed once and resuspended in assay buffer and examined by FACS. The percent (%) effect at each concentration of compound was calculated and relative to the amount of calcium produced in the positive and negative control wells contained within each assay plate. The concentrations and % effect values for tested compounds were plotted and the concentration of compound required for 50% effect (IC50) was determined. Tables 2 summarize results of the CXCR4 competitive binding assay for selected compounds disclosed in the present disclosure. FIGS. 1-2 depict the IC50 curves of compounds A42 and A43.

T1 sequence (P61073 whole entry): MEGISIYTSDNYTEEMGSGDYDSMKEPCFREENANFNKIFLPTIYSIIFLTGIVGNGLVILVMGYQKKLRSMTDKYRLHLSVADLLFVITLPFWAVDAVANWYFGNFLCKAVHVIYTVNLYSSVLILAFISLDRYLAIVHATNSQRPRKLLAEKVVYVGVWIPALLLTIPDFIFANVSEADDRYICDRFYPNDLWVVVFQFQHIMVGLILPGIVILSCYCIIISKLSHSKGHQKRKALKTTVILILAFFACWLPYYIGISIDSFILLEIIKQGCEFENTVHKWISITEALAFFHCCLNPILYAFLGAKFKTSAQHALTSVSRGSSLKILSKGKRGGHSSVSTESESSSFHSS

| Compound | IC50 [1] [nM] | IC50 [2] [nM] |
| --- | --- | --- |
| CN1CCN(c2cc(CN(C)C3CCCc4cccnc43)ncn2)CC1 (stereo not shown) [Compound A1, N-methyl-N-((6-(4-methylpiperazin-1-yl)pyrimidin-4-yl)methyl)-5,6,7,8-tetrahydroquinolin-8-amine] | 4.5 | 45 |
| CN1CCCN(c2cc(CN(C)C3CCCc4cccnc43)ncn2)CC1 (stereo not shown) [Compound A22] | 3.4 | 32 |
| Cc1nc(CN(C)[C@H]2CCCc3cccnc32)cc(N2CCN(C)CC2)n1 [Compound A42] | 0.021 | 9.8 |
| Cc1nc(CN(C)[C@H]2CCCc3cccnc32)c(C)c(N2CCN(C)CC2)n1 [Compound A61] | 0.024 | 8.8 |
| Cc1nc(CN(C)[C@@H](C)c2ccccn2)cc(N2CCN(C)CC2)n1 [Compound A75, (S)-N-methyl-N-((2-methyl-6-(4-methylpiperazin-1-yl)pyrimidin-4-yl)methyl)-1-(pyridin-2-yl)ethan-1-amine] | 0.09 | 15 |
| Cc1nc(CN(C)C2=C(F)CCc3cccnc32)cc(N2CCN(C)CC2)n1 [Compound D1, 7-fluoro-N-methyl-N-((2-methyl-6-(4-methylpiperazin-1-yl)pyrimidin-4-yl)methyl)-5,6-dihydroquinolin-8-amine] | 1.2 | 18 |
| Cc1nc(CN(C)c2cccc3cccnc23)cc(N2CCN(C)CC2)n1 [Compound D2, N-methyl-N-((2-methyl-6-(4-methylpiperazin-1-yl)pyrimidin-4-yl)methyl)quinolin-8-amine] | 0.24 | 65 |
| Cc1nc(CN(C)c2cccc3cccnc23)cc(N2CCN(C)[C@H](C)C2)n1 [Compound D4] | 0.14 | 55 |
| Cc1nc(CN(C)c2c(C)ccc3cccnc23)cc(N2CCN(C)CC2)n1 [Compound D14] | 0.3 | 57 |
| Cc1nc(CN(C)c2cc(F)c(F)c3cccnc23)cc(N2CCN(C)CC2)n1 [Compound D20] | 3.1 | 675 |
| CCN(Cc1cc(N2CCN(C)CC2)nc(C)n1)c1cccc2cccnc12 [Compound D25] | 16 | 151 |
| Cc1nc(CN(CCCCN)c2cccc3cccnc23)cc(N2CCN(C)CC2)n1 [Compound D28] | 0.21 | 338 |
| Cc1nc(CN(CCCC(=O)O)c2cccc3cccnc23)cc(N2CCN(C)CC2)n1 [Compound D30, 4-(((2-methyl-6-(4-methylpiperazin-1-yl)pyrimidin-4-yl)methyl)(quinolin-8-yl)amino)butanoic acid] | 9.3 | 3820 |
| Cc1nc(CN(C)c2cccc3cccnc23)c(C#N)c(N2CCN(C)CC2)n1 [Compound D36] | 3.6 | 1170 |
